{"source": "patent US9682066B2", "about": "(University of Cincinnati, priority 2012, dated 2017)", "key": {"[1]": {"assay": "in vivo", "details": "female, Sprague-Dawley, rat, iv", "procedure": "(§1) Experiments were carried out in female Sprague-Dawley rats weighing 200-250 g. […] Blood samples from jugular vein cannulation and dialysate samples from microdialysis probe implanted stereotactically into the striatum region of the brain were obtained every 30 minutes over 8 hours and analyzed by HPLC (fluorescence detection, Excitation λ, 230 nm; Emission λ, 295 nm). Microdialysate samples were corrected for in vivo relative recovery (9.5%), measured under similar experimental conditions.\n(§2) In order to obtain the correct ECF concentrations from those obtained by bioanalysis of dialysate samples, the correction factor known as “% recovery” is employed. The % recovery for a compound can be obtained by in vivo or in vitro recovery analysis. […] In vitro relative recovery was calculated as follows: % recoveryin vitro=[C(dialysate)/C(reservoir)]×100\n(§3) At the end of microdialysis, brain tissues were collected after transcardial perfusion for histological evaluation to confirm formation of tumor in the right striatum and immunohistochemistry to differentiate the expression of aromatase in tumoral and normal brain regions. The pharmacokinetic parameters (including time required to achieve maximum drug levels (Tmax), area under the concentrations-time curve (AUC) over a defined time interval, and peak or maximum concentrations (Cmax)) of both plasma and brain ECF were estimated by non-compartmental analysis using WinNonlin 6.2 (Pharsight Inc.).\n(§4) The brain ECF concentrations were time-averaged over the collection interval and corrected for in vivo recovery. […] Results are presented as mean±SD. (N=9 for 4 and 8 mg/kg, N=6 for 6 and 12 mg/kg). […] Simultaneous plasma and ECF pharmacokinetic determination facilitated estimation of the relative brain distribution coefficient, calculated as (AUCbrain ecf/AUCplasma, ub)."}, "[2]": {"system": "MDA-MB-231", "assay": "Cytotoxicity of letrozole (MTT assay)", "type": "cell-based", "details": "Homo sapiens"}, "[3]": {"system": "U373MG", "assay": "Cytotoxicity of letrozole (MTT assay)", "type": "cell-based", "details": "Homo sapiens, U373 MG"}, "[4]": {"system": "rat glioma cell line C6", "assay": "Cytotoxicity of letrozole (MTT assay)", "type": "cell-based"}, "[5]": {"system": "aromatase", "assay": "Aromatase expression in rat glioma tissue (IHC)", "type": "in vivo", "details": "treatment group versus control group (high expression)", "procedure": "Expression of aromatase in tumors from rats of both control and treatment groups was evaluated using immunohistochemical (IHC analysis). Rat ovary (FIG. 12(A)) was used as a positive control for aromatase expression."}, "[6]": {"assay": "Tumoral versus normal brain ECF pharmacokinetics in C6 glioma-bearing rats", "type": "in vivo", "details": "female, Sprague-Dawley, rat, mean±SD; for AUC(0-t): 8 mg/kg IV bolus"}, "[7]": {"system": "MCF-7", "assay": "Cytotoxicity of letrozole (MTT assay)", "type": "cell-based", "details": "Homo sapiens, MCF7"}, "[8]": {"assay": "Tumoral versus normal brain ECF pharmacokinetics in C6 glioma-bearing rats", "type": "in vivo, female Sprague-Dawley rats", "protocol": "Histology of rat brains was performed as outlined in Apparaju et al., Pharmacokinetics of gemcitabine in tumor and non-tumor extracellular fluid of brain: an in vivo assessment in rats employing intracerebral microdialysis, Cancer Chemother. Pharmacol. 61: 223-29 (2008)."}, "[9]": {"assay": "Brain pharmacokinetics after oral administration", "type": "in vivo", "details": "rat, 4 mg/kg oral gavage, brain ECF", "source_text": "A slight delay in Tmax was observed, consistent with the delay of appearance of the drug in systemic circulation."}, "[10]": {"system": "C6 glioma", "assay": "In vivo anti-tumor efficacy of oral dosed letrozole", "parameters": "species or system rat", "details": "4 mg/kg/day oral gavage stopped after 15 days; scan on Day 45", "source_text": "Rats received tumor implantation as described in Example 6. […] Animals were scanned 5, 10, and 15 days after treatment period to observe change in tumor volume. After 15 days, treatment was stopped. Animals were scanned again on Day 45 (30 days post cessation of treatment)."}, "[11]": {"assay": "Normal brain ECF (microdialysis) versus plasma pharmacokinetics, IV bolus;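 for all read-outs here: parameters by non-compartmental analysis, mean±SD, brain ECF sampled by microdialysis in freely moving rats and corrected for in vivo recovery, Kp as brain ECF AUC over unbound plasma AUC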", "details": "for Cmax, Brain: brain ECF; for Cmax, Brain / AUC0-8 hr, Plasma ub (Unbound) / Cmax, Plasma ub (Unbound): mean±SD", "procedure": "as §1, §2, §3, §4"}, "[12]": {"assay": "Plasma protein binding with non-specific binding correction", "type": "in vitro ADME", "details": "NSB correction, concentration range 0.1-10 μM", "source_text": "Results are presented as mean±SD."}, "[13]": {"target": "T1, aromatase activity in rat glioma cell line C6 (Rattus norvegicus, UniProt P22443)", "T1 construct": "endogenous in cells; host or cells: C6 rat glioma cell line", "T1 sequence (P22443 1-508)": "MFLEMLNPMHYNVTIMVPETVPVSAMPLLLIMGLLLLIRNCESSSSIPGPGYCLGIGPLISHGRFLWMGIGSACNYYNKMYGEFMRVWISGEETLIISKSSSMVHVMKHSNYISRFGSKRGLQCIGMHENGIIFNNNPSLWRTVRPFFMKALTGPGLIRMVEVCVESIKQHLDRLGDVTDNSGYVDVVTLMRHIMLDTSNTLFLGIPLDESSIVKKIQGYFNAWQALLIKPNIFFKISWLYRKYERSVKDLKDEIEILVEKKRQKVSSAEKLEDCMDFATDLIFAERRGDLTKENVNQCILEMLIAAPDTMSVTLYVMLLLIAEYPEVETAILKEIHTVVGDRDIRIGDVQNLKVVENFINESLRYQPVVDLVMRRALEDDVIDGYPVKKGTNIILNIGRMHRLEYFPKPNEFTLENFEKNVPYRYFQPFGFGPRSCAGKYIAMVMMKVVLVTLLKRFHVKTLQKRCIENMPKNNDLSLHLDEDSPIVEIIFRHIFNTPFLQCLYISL", "assay": "Aromatase activity (estradiol EIA assay)", "type": "cell-based", "details": "testosterone 0.1 μM, 2 days incubation"}, "[14]": {"system": "T98G", "assay": "Cytotoxicity of letrozole (MTT assay)", "type": "cell-based", "details": "Homo sapiens"}, "[15]": {"system": "brain metastases from breast cancer", "details": "cited from earlier work"}, "[16]": {"system": "C6 glioma", "details": "4 mg/kg/day i.v.", "quoted_text": "10 days after tumor implantation, anesthetized rats were scanned on μPET scanner (Siemens Inveon) to obtain active tumor volume at Day 0.\nAnimals were scanned again 8-10 days post treatment to assess change in tumor volume."}, "[17]": {"details": "female, Sprague-Dawley, rat, tumor-free brain ECF (left striatum, control), 8 mg/kg IV bolus, tumor-free brain ECF, mean±SD"}}, "data": [{"smiles": "N#Cc1ccc(C(c2ccc(C#N)cc2)n2cncn2)cc1", "note": "[letrozole, 4,4′-((1H-1,2,4-triazol-1-yl)methylene)dibenzonitrile]", "values": [{"measurement": "Kp", "setting": "[1]; brain ECF (striatum microdialysate) versus unbound plasma, 4 mg/kg", "result": 0.51}, {"measurement": "Kp", "setting": "[1]; brain ECF / unbound plasma, 4 mg/kg", "result": 0.32}, {"measurement": "Kp", "setting": "[1]; brain ECF / unbound plasma, 6 mg/kg", "result": 0.98}, {"measurement": "Kp", "setting": "[1]; brain ECF / unbound plasma, 8 mg/kg", "result": 0.77}, {"measurement": "Kp", "setting": "[1]; brain ECF / unbound plasma, 12 mg/kg", "result": 0.8}, {"measurement": "AUC(0-t)", "setting": "[1]; brain ECF, 4 mg/kg", "result": "583 ± 189", "unit": "ng·h/mL"}, {"measurement": "Cmax", "setting": "[1]; brain ECF, 4 mg/kg", "result": "132 ± 79", "unit": "ng/mL"}, {"measurement": "Tmax", "setting": "[1]; brain ECF, 4 mg/kg", "result": "1.4 ± 0.6", "unit": "h"}, {"measurement": "AUC(0-t)", "setting": "[1]; brain ECF, 6 mg/kg", "result": "2010 ± 137", "unit": "ng·h/mL"}, {"measurement": "AUC(0-t)", "setting": "[1]; brain ECF, 8 mg/kg", "result": "2640 ± 286", "unit": "ng·h/mL"}, {"measurement": "Tmax", "setting": "[1]; brain ECF, 8 mg/kg", "result": "1.33 ± 0.5", "unit": "h"}, {"measurement": "AUC(0-t)", "setting": "[1]; brain ECF, 12 mg/kg", "result": "2550 ± 173", "unit": "ng·h/mL"}, {"measurement": "Tmax", "setting": "[1]; brain ECF, 12 mg/kg", "result": "1.3 to 1.5", "unit": "h"}, {"measurement": "AUC(0-t)", "setting": "[1]; plasma (total), 4 mg/kg", "result": "4780 ± 932", "unit": "ng·h/mL"}, {"measurement": "Cmax", "setting": "[1]; plasma (total), 4 mg/kg", "result": "682 ± 24", "unit": "ng/mL"}, {"measurement": "AUC(0-t)", "setting": "[1]; plasma (total), 6 mg/kg", "result": "5980 ± 146", "unit": "ng·h/mL"}, {"measurement": "Cmax", "setting": "[1]; plasma (total), 6 mg/kg", "result": "916 ± 71", "unit": "ng/mL"}, {"measurement": "AUC(0-t)", "setting": "[1]; plasma (total), 8 mg/kg", "result": "8830 ± 1080", "unit": "ng·h/mL"}, {"measurement": "Cmax", "setting": "[1]; plasma (total), 8 mg/kg", "result": "1280 ± 182", "unit": "ng/mL"}, {"measurement": "AUC(0-t)", "setting": "[1]; plasma (total), 12 mg/kg", "result": "8060 ± 1420", "unit": "ng·h/mL"}, {"measurement": "Cmax", "setting": "[1]; plasma (total), 12 mg/kg", "result": "2070 ± 258", "unit": "ng/mL"}, {"measurement": "IC50", "setting": "[2]", "result": "> 100000", "unit": "nM"}, {"measurement": "IC50", "setting": "[3]", "result": 4390, "unit": "nM"}, {"measurement": "IC50", "setting": "[4]", "result": 110, "unit": "nM"}, {"measurement": "aromatase expression in tumor sections (IHC)", "setting": "[5]", "result": "relatively low aromatase expression"}, {"measurement": "Cmax", "setting": "[6]; tumor-free brain ECF (left striatum, control), 4 mg/kg IV bolus, tumor-free brain ECF", "result": "183 ± 13", "unit": "ng/mL"}, {"measurement": "AUC(0-t)", "setting": "[6]; tumor-free brain ECF (left striatum, control), tumor-free brain ECF, read-out: AUC0-8 hr, Control", "result": "2280 ± 428", "unit": "ng·h/mL"}, {"measurement": "AUC(0-t)", "setting": "[6]; tumoral brain ECF (right striatum), tumoral brain ECF, read-out: AUC0-8 hr, Tumor", "result": "4700 ± 555", "unit": "ng·h/mL"}, {"measurement": "IC50", "setting": "[7]", "result": "< 100", "unit": "nM"}, {"measurement": "Cmax, Tumor", "setting": "[8]; 4 mg/kg IV bolus, tumoral brain ECF, mean±SD", "result": "354 ± 34", "unit": "ng/mL"}, {"measurement": "Cmax, Tumor", "setting": "[8]; 8 mg/kg IV bolus, tumoral brain ECF, mean±SD", "result": "1022 ± 204", "unit": "ng/mL"}, {"measurement": "Tmax", "setting": "[8]; female, Sprague-Dawley, rat, tumor-free brain ECF (left striatum, control), 4 mg/kg IV bolus, tumor-free brain ECF, mean±SD", "result": "1.75 ± 0.5", "unit": "h"}, {"measurement": "AUC(0-t)", "setting": "[8]; female, Sprague-Dawley, rat, tumor-free brain ECF (left striatum, control), 4 mg/kg IV bolus, tumor-free brain ECF, mean±SD, read-out: AUC0-8 hr, Control", "result": "803 ± 216", "unit": "ng·h/mL"}, {"measurement": "Cmax", "setting": "[8]; [17]", "result": "475 ± 87", "unit": "ng/mL"}, {"measurement": "Tmax", "setting": "[8]; [17]", "result": "1.33 ± 0.3", "unit": "h"}, {"measurement": "AUC(0-t)", "setting": "[8]; female, Sprague-Dawley, rat, tumoral brain ECF (right striatum), 4 mg/kg IV bolus, tumoral brain ECF, mean±SD, read-out: AUC0-8 hr, Tumor", "result": "1160 ± 167", "unit": "ng·h/mL"}, {"measurement": "penetration of BBB and BTB", "setting": "[8]; rats, microdialysis", "result": "effectively crosses the BBB and BTB"}, {"measurement": "Cmax", "setting": "[9]", "result": "176 ± 23", "unit": "ng/mL"}, {"measurement": "Tmax", "setting": "[9]", "result": "5.75 ± 1.8", "unit": "h"}, {"measurement": "AUC(0-t)", "setting": "[9]; read-out: AUC0-8 hr", "result": "976 ± 162", "unit": "ng·h/mL"}, {"measurement": "tumor course after cessation of treatment", "setting": "[10]", "result": "tumors recurred once treatment was stopped"}, {"measurement": "Cmax, Brain", "setting": "[11]; 4 mg/kg IV bolus", "result": "132 ± 79", "unit": "ng/mL"}, {"measurement": "AUC0-8 hr, Plasma ub (Unbound)", "setting": "[11]; 4 mg/kg IV bolus", "result": "1817 ± 354", "unit": "ng·h/mL"}, {"measurement": "Cmax, Plasma ub (Unbound)", "setting": "[11]; 4 mg/kg IV bolus", "result": "259 ± 9", "unit": "ng/mL"}, {"measurement": "AUC0-8 hr, Plasma ub (Unbound)", "setting": "[11]; 6 mg/kg IV bolus", "result": "2272 ± 56", "unit": "ng·h/mL"}, {"measurement": "Cmax, Plasma ub (Unbound)", "setting": "[11]; 6 mg/kg IV bolus", "result": "348 ± 27", "unit": "ng/mL"}, {"measurement": "Cmax, Brain", "setting": "[11]; 8 mg/kg IV bolus", "result": "376 ± 61", "unit": "ng/mL"}, {"measurement": "AUC0-8 hr, Plasma ub (Unbound)", "setting": "[11]; 8 mg/kg IV bolus", "result": "3355 ± 412", "unit": "ng·h/mL"}, {"measurement": "Cmax, Plasma ub (Unbound)", "setting": "[11]; 8 mg/kg IV bolus", "result": "485 ± 69", "unit": "ng/mL"}, {"measurement": "Cmax, Brain", "setting": "[11]; 12 mg/kg IV bolus", "result": "631 ± 22", "unit": "ng/mL"}, {"measurement": "AUC0-8 hr, Plasma ub (Unbound)", "setting": "[11]; 12 mg/kg IV bolus", "result": "3062 ± 539", "unit": "ng·h/mL"}, {"measurement": "Cmax, Plasma ub (Unbound)", "setting": "[11]; 12 mg/kg IV bolus", "result": "787 ± 98", "unit": "ng/mL"}, {"measurement": "dose linearity of brain and plasma pharmacokinetics", "setting": "[11]; IV bolus 4, 6, 8, 12 mg/kg, linear regression of Cmax and AUC0-8hr", "result": "linear up to 8 mg/kg and potentially non-linear thereafter"}, {"measurement": "fraction unbound", "setting": "[12]", "result": 0.38}, {"measurement": "IC50", "setting": "[13]", "result": 100, "unit": "nM"}, {"measurement": "IC50", "setting": "[14]", "result": 2810, "unit": "nM"}, {"measurement": "clinical response of brain metastases, case report (Madhup et al.)", "setting": "[15]; person, 5-mg tablets once daily, repeat CECT in 2005", "result": "significant reduction in the brain metastases"}, {"measurement": "clinical response of brain metastases, case report (Goyal et al.)", "setting": "[15]; postmenopausal person, 2.5 mg daily, 20 months later", "result": "complete recovery of neurological functions"}, {"measurement": "clinical condition of treated rats", "setting": "[16]; throughout the treatment period", "result": "no clinical symptoms"}, {"measurement": "tumor volume, treatment rat 8, day 8", "setting": "[16]; Day 0 volume 90.9 mm^3", "result": 5.8, "unit": "mm^3"}, {"measurement": "tumor volume, treatment rat 4, Day 5", "setting": "[16]; Day 0 volume 100.5 mm^3", "result": 70.5, "unit": "mm^3"}, {"measurement": "tumor volume, treatment rat 4, Day 10", "setting": "[16]; Day 0 volume 100.5 mm^3", "result": 18.7, "unit": "mm^3"}]}]}
